From paper PMC8079714 (Nature Communications, 2021) come the findings set out here.

“And” between values parts separate entries of the source, which are not always exact repeats. Equal values may be shown once.

The assay has as its system N. benthamiana leaves. Particulars: in vivo.
As to DPIYTPNSGETIDAGAPYTVTW [SGP123-44rec], the “sites showing a visible cell death response out of total infiltrated sites” value is 10/10 and 30/30.

Turning to “NPDFNPVNKPTPNEKIPAGSTYKIEWTAPA [VdSNP30rec]”, the “sites showing a visible cell death response out of total infiltrated sites” value was 1/10 and 3/30.

“TADFDPIFKPEAWQSVAAGQSFQITWDAPA [FsSNP30rec]”: the “sites showing a visible cell death response out of total infiltrated sites” value was 9/10 and 27/30.

Turning to “TAGFDAISVPTNGQVVKVGDVLDITWAPNA [SsSNP30rec]”, the “sites showing a visible cell death response out of total infiltrated sites” value was 9/10 and 10/10 and 28/30.

For “TAGFDAISVPTNGQVVQVGDVLDITWAPNS [BcSNP30rec]”, the “sites showing a visible cell death response out of total infiltrated sites” value is 10/10 and 30/30.

Take “TAGFDAVLTPAKDEVVAAGSSYTITWDYSS [VmSNP30rec]”: the “sites showing a visible cell death response out of total infiltrated sites” value is 0/10 and 0/30.

For the substance “TPDFDPIYTPKKDEVVAAGSPLVITWDAPA [CpSNP30rec]”, the “sites showing a visible cell death response out of total infiltrated sites” value is 9/10 and 10/10 and 28/30.

As for “TPGFHALVKPVRDEVIPAGKPYTLEWQPGG [MoSNP30rec]”, the “sites showing a visible cell death response out of total infiltrated sites” value was 1/10 and 3/30.

For “VADFDPVLTPTNWEEVSAGKTLEITWQAKP [FvSNP30rec]”, the “sites showing a visible cell death response out of total infiltrated sites” value is 0/10 and 0/30.

For the substance W44A (FDPIYTPNSGETIDAGAPYTVTA), the “sites showing a visible cell death response out of total infiltrated sites” value is 0/5 and 0/15.
